Results reported in US20250186433A1, “ACSS2 INHIBITORS AND METHODS OF USE THEREOF” (EpiVario, Inc., priority 2017, published 2025).
Entries after “also recorded” stand apart in the source; their conditions may differ.

Assays:
ACSS1 = molecular target: T1, ACSS1 (Homo sapiens, UniProt Q9NUB1); assay: Acyl-CoA synthetases selectivity panel: ACSS1; type: biochemical; conditions: human recombinant protein, substrate acetate, AMP readout by HPLC; read-out: HPLC based activity assays IC50 (UM) ACSS1
T1 construct: purchased Cusabio, China
T1 sequence (Q9NUB1 38-689): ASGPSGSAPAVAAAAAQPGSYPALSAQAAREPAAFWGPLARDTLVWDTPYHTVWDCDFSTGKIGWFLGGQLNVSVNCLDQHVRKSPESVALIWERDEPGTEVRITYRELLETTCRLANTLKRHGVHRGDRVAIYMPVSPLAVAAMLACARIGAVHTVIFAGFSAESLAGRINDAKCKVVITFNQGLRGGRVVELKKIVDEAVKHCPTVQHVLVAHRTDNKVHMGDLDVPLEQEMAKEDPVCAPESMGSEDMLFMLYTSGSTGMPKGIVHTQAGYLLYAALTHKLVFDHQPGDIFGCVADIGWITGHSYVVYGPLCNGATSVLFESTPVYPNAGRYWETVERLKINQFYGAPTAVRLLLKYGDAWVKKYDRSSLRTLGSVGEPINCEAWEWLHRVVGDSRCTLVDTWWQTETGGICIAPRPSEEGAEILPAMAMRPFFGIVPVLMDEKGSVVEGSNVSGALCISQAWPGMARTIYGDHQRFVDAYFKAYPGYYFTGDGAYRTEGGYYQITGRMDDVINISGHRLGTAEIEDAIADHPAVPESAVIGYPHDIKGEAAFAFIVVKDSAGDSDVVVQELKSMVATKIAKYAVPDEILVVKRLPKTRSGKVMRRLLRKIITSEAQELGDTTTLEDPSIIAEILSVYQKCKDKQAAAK
From the text: (§1) The biochemical assays for testing the selectivity of the compounds according to this invention, were done using human recombinant proteins (Cusabio, China). The readout of the assays was AMP levels, the […] of the reactions, by HPLC method. The acyl substrates (Sigma-Aldrich) of the assays were as followed: ACSS1/ACSS2—Acetate, AACS-Acetoacetyl, ACSF2—Octanoate and ACSL5—Palmitate. The protein in this panel include ACSS1, the closest homolog of ACSS2, in addition to representative short/medium/long chain acyl-CoA syntatases.

ACSF2 = molecular target: T2, ACSF2 (Homo sapiens, UniProt Q96CM8); assay: Acyl-CoA synthetases selectivity panel: ACSF2; type: biochemical; conditions: human recombinant protein, substrate octanoate, AMP readout by HPLC; read-out: HPLC based activity assays IC50 (UM) ACSF2
T2 construct: purchased Cusabio, China
T2 sequence (Q96CM8 42-615): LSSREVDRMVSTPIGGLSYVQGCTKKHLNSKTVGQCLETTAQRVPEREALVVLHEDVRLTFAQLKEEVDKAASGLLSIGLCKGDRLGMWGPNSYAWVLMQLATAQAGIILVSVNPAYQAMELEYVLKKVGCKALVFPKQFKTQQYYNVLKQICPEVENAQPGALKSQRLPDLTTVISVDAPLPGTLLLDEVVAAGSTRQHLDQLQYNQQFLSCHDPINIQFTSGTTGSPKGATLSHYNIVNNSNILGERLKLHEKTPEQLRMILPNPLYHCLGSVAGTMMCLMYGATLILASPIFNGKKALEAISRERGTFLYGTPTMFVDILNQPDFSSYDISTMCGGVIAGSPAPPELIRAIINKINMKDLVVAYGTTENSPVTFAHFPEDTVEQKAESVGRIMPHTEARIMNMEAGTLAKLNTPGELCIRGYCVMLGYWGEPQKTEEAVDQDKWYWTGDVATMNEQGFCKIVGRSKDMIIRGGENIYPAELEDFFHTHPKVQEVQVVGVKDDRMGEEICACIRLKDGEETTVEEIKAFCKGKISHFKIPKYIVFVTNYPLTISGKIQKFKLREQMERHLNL
From the text: as §1

ACSS2 [1] = molecular target: T3, ACSS2 (Homo sapiens, UniProt Q9NR19); assay: biochemical
T3 sequence (Q9NR19 whole entry): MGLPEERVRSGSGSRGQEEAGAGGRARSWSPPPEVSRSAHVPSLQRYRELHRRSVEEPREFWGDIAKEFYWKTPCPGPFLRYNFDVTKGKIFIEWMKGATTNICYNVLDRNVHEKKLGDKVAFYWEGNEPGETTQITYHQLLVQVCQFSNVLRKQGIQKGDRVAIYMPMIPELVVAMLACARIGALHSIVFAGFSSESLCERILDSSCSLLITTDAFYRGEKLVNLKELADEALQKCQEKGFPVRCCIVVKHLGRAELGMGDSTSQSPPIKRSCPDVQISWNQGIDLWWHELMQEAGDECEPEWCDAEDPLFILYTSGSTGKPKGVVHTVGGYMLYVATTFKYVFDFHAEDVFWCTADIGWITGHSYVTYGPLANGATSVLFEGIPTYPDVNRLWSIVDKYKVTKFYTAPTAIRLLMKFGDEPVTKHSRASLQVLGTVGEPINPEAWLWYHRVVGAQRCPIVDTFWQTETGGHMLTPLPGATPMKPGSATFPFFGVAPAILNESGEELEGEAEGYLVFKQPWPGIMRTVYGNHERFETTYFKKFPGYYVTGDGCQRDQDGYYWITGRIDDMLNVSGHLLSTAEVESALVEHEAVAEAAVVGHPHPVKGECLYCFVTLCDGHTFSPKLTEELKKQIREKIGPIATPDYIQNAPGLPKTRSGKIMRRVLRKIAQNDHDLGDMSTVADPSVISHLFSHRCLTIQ
Protocol: The assay is based on a coupling reaction with Pyrophosphatase: ACSS2 is converting ATP+CoA+Acetate=>AMP+pyrophosphate+Acetyl-CoA (Ac-CoA). Pyrophosphatase converts pyrophosphate, a product of the ACSS2 reaction, to phosphate which can be detected by measuring the absorbance at 620 nm after incubation with the Biomol green reagent (Enzo life Science, BML-AK111).
At the end of the reaction, Biomol Green was added for 30 minutes at RT and the activity was measured by reading the absorbance at 620 nm.

ACSS2 [2] = molecular target: T3, ACSS2; assay: cell-based
Protocol: Testing the inhibitory effect of compounds on the cellular activity of ACSS2 was done by tracing the incorporation of ^13C from ^13C-acetate into fatty-acids in MDA-MB-468 cells under hypoxic conditions of 1% O2. The assay was done for 5 hours in DMEM with 5.5 mM glucose, 1 mM sodium Pyruvate, 0.65 mM Glutamine, 3.5 ug/ml Biotin, 1% dialyzed serum, 0.5 mM 13 C-acetate and with different concentrations of the inhibitors. At the end of the incubation, the cells were washed with cold PBS, harvested into glass tubes and undergo saponification. The level of ^13C incorporation into Palmitate was done by LC-MS analysis and the level of inhibition was calculated with PRISM software.

[3] = Pharmacokinetic profile in mice (oral and iv); type: in vivo; conditions: mouse, plasma
[4] = test system: MDA-MB-468 breast cancer cells xenograft; assay: In-vivo efficacy study in MDA-MB-468 breast cancer cells xenograft; conditions: 100 mg/kg orally once daily; female NMRI nude mice
Protocol: An in-vivo efficacy study was carried out by Charles-River Laboratories at the Freiburg, Germany site.
Tumor fragments from Breast cancer cell line MDA-MB-468 passaged as subcutaneous xenograft were subcutaneously implanted into female NMRI nude mice (Crl:NMRI-Foxnlnu). The animals were randomized into groups (n=10) when tumors volume reached 50 to 250 mm3. […] Body weights and tumor volume [mm3] by caliper were measured twice weekly.

ACSL5 = molecular target: T4, ACSL5 (Homo sapiens, UniProt Q9ULC5); assay: Acyl-CoA synthetases selectivity panel: ACSL5; type: biochemical; conditions: human recombinant protein, substrate palmitate, AMP readout by HPLC; read-out: HPLC based activity assays IC50 (UM) ACSL5
T4 construct: purchased Cusabio, China
T4 sequence (Q9ULC5 1-683): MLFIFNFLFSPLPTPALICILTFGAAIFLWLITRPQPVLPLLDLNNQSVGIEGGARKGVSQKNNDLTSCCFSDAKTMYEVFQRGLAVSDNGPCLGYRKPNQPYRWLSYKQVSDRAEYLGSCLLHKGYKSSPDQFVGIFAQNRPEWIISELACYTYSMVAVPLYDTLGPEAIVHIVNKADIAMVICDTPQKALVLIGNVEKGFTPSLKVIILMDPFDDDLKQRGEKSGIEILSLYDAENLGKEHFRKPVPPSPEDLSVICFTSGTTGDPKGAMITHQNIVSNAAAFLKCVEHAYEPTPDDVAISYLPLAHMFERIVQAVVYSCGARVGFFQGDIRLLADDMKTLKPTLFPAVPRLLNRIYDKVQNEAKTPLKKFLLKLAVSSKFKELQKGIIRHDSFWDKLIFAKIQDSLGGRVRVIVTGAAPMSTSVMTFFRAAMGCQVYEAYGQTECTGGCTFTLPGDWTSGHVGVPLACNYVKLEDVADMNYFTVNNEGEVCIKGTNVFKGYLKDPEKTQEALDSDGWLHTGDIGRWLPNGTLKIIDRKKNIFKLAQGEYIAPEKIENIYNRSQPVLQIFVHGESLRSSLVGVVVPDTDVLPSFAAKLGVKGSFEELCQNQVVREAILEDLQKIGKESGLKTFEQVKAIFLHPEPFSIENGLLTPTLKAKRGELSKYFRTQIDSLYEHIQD
From the text: as §1

AACS = molecular target: T5, AACS (Homo sapiens, UniProt Q86V21); assay: Acyl-CoA synthetases selectivity panel: AACS; type: biochemical; conditions: human recombinant protein, substrate acetoacetyl, AMP readout by HPLC; read-out: HPLC based activity assays IC50 (UM) AACS
T5 construct: purchased Cusabio, China
T5 sequence (Q86V21 1-672): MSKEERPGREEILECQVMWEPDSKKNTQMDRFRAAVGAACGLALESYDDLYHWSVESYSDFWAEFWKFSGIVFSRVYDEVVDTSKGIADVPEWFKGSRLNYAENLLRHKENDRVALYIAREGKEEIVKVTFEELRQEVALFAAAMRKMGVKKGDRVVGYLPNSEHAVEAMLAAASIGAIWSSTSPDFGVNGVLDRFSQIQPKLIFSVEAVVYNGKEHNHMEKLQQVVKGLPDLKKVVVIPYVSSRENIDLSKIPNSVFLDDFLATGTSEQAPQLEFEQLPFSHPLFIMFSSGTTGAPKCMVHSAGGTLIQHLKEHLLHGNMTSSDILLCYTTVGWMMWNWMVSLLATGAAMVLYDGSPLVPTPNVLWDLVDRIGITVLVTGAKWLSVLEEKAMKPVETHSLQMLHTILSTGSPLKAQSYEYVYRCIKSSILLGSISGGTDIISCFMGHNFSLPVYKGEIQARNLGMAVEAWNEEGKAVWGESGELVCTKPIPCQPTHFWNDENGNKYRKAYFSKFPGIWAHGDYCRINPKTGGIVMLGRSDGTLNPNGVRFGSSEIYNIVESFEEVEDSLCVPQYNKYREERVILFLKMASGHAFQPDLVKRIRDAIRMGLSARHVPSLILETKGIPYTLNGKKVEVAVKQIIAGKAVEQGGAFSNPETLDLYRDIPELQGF
From the text: as §1

ACSS2 [5] = molecular target: T3, ACSS2; assay: Acyl-CoA synthetases selectivity panel: ACSS2; type: biochemical; parameters: purchased Cusabio, China; conditions: human recombinant protein, substrate acetate, AMP readout by HPLC; read-out: HPLC based activity assays IC50 (UM) ACSS2
From the text: as §1

HCT116 = assay: In-vivo model that does not utilize acetate (HCT116); conditions: daily oral dosing
ACSS2 [6] = molecular target: T6, ACSS2 (Mus musculus, UniProt Q9QXG4); assay: PK-PD study: inhibition of 13C incorporation into fatty-acid (palmitate) in vivo; conditions: C57BL/6J mice, 50 mg/kg IP, 13C-ETOH PO at 1 h, plasma at 3 h, read-out: inhibition of 13C-Acetate incorporation into fatty-acids (palmitate)
T6 construct: from tissue; host or cells: whole animal, C57BL/6J mice; plasma palmitate read out
T6 sequence (Q9QXG4 whole entry): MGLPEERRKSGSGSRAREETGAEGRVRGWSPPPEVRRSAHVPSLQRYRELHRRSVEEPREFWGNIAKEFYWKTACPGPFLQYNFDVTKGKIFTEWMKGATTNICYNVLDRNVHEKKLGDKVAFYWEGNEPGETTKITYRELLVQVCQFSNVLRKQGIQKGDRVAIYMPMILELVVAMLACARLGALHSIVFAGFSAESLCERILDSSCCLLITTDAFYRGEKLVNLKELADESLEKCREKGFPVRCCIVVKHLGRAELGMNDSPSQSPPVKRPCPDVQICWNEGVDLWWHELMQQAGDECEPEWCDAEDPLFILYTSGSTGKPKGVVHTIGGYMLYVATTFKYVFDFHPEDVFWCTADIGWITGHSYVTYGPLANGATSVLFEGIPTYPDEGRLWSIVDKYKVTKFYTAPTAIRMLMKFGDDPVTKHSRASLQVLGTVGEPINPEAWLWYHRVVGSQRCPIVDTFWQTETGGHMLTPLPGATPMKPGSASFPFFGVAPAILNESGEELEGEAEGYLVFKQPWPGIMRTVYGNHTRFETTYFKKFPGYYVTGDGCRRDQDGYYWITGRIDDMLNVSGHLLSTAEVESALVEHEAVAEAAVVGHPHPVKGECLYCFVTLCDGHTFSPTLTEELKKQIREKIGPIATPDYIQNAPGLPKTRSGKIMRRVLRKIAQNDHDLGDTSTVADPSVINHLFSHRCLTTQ
Protocol: Overnight fasted Female C57BL/6J mice (3n/group) were dosed at time=0 h with the indicated compound at 50 mg/kg IP (vehicle: 20% Solutol, 80% 0.2M Phosphate buffer pH 7.0). At time 1 h, 13C-ETOH (2.25 gr/kg 13C-ETOH dissolved in saline to a total volume of 10 ml/kg) were administrated by PO. At time 3 h plasma samples were taken for Fatty-acid analysis by Mass-spectrometry. The incorporation of ^13C into palmitate was done by Mass-spectrometry after saponification of the samples and the percent incorporation of ^13C was calculated.

For `COc1ccc(N2N=C(C)C(C(=O)Nc3cccc(C(C)(F)F)c3)C2=O)cc1` (centres unmarked) [compound 265, N-(3-(1,1-difluoroethyl)phenyl)-1-(4-methoxyphenyl)-3-methyl-5-oxo-4,5-dihydro-1H-pyrazole-4-carboxamide], the IC50 (ACSS1) was 1000 to 10000 nM, the IC50 (ACSF2) was 152000 nM and the IC50 (ACSS2 [1]) was 0.01 to 6 nM. The IC50 (ACSS2 [2]) was 0.5 to 50 nM, the bioavailability ([3]; oral 5 mg/kg, iv 1 mg/kg) was 74% and the clearance ([3]; oral 5 mg/kg, iv 1 mg/kg) was 0.59 mL/min/kg. The half-life ([3]; po, single 5 mg/kg dose, read-out: t½ (converted)) was 6.51 h, the “tumor growth in MDA-MB-468 xenograft model” value [4] was “significant tumor growth delay; also recorded: inhibits tumor growth” and the IC50 (ACSL5) was > 100000 nM. The IC50 (AACS) was 171000 nM, the IC50 (ACSS2 [5]) was < 1 nM and the “efficacy in a model that does not utilize acetate (HCT116)” value (HCT116) was “no efficacy”.
For `CC1=NN(c2ccc(OC(F)F)cc2)C(=O)C1C(=O)Nc1cccc(C(C)(F)F)c1` (centres unmarked) [compound 298, N-(3-(1,1-difluoroethyl)phenyl)-1-(4-(difluoromethoxy)phenyl)-3-methyl-5-oxo-4,5-dihydro-1H-pyrazole-4-carboxamide], the “tumor growth in MDA-MB-468 xenograft model” value [4] was “significant tumor growth delay” and the “efficacy in a model that does not utilize acetate (HCT116)” value (HCT116) was “no efficacy”.
For `CC1=NN(c2ccc(OC(F)F)cc2)C(=O)C1C(=O)N[C@H]1CC[C@@H](O)[C@@H](O)C1` (stereo partly drawn) [compound 307, 1-(4-(difluoromethoxy)phenyl)-N-((1S,3S,4R)-3,4-dihydroxycyclohexyl)-3-methyl-5-oxo-4,5-dihydro-1H-pyrazole-4-carboxamide], the IC50 (ACSS2 [1]) was 0.01 to 6 nM and the IC50 (ACSS2 [2]) was > 100 nM.
Compound `CC1=NN(c2ccc(OC(F)F)c(-c3cnccn3)c2)C(=O)C1C(=O)Nc1cccc(C(C)(F)F)c1` (centres unmarked) [compound 328, N-[3-(1,1-difluoroethyl)phenyl]-1-[4-(difluoromethoxy)-3-pyrazin-2-yl-phenyl]-3-methyl-5-oxo-4H-pyrazole-4-carboxamide] has an inhibition at 50 mg/kg (ACSS2 [6]) of 87%.
